Earlier results as cited in US9283189B2, “Sustained-release preparation of ivabradine or pharmaceutically acceptable salts thereof” (Jiangsu Hengrui Medicine Co., Ltd., priority 2011, dated 2016).

COc1cc2c(cc1OC)CC(=O)N(CCCN(C)CC1Cc3cc(OC)c(OC)cc31)CC2 (centres unmarked) [Ivabradine]
Average plasma concentration at steady state (5 mg twice daily, CV=38%): 10 ng/mL
Main half-life in plasma (70˜75% of the AUC): 2 h
Maximum plasma concentration (chronic administration, 5 mg twice daily, CV=29%): 22 ng/mL
Volume of distribution at steady state (in patients): ~100 L
Effective half-life (in vivo): 11 h
Plasma protein bound (in vivo): approximately 70%
Renal clearance (in vivo): approximately 70 ml/min
Total clearance (in vivo): about 400 ml/min
Oral dose excreted unmetabolized in urine (in vivo, po): About 4%
Time to peak plasma level (oral administration, fasting condition): about 1 hour
Kinetics (dose proportionality) (oral dose range of 0.5 mg˜24 mg): linear
Angina attacks (chronic stable angina; 5 mg and 7.5 mg twice daily, patients with chronic stable angina): significant decrease
Influence on glucose or lipid metabolism (chronic stable angina; human, in vivo): no influence
Rebound effect following the withdrawal of treatment (chronic stable angina; human, in vivo): no rebound effect
